Reference: US7795290B2 (Genentech, Inc., priority 2004, dated 2010)

target: T1, AKT1 (Homo sapiens, UniProt P31749); assay: HTS ATP-utilizing enzyme assay, off-chip mobility-shift (Caliper HTS 250); type: biochemical; conditions: kinase named = inhibitory activity/selectivity; test compound 10 μM; active = greater than three-sigma from mean
T1 construct: purchased Upstate 14-276
Outline: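 AKT1 activity was measured by off-chip mobility shift (Caliper HTS 250) as the ratio of peptide substrate to phosphorylated product. Test compound was at 10 μM, with 2.5 h incubation at 20–22° C. EDTA wells served as 100% control and DMSO wells as 0%. Hits were called at three-sigma limits.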

T1 sequence (P31749 whole entry): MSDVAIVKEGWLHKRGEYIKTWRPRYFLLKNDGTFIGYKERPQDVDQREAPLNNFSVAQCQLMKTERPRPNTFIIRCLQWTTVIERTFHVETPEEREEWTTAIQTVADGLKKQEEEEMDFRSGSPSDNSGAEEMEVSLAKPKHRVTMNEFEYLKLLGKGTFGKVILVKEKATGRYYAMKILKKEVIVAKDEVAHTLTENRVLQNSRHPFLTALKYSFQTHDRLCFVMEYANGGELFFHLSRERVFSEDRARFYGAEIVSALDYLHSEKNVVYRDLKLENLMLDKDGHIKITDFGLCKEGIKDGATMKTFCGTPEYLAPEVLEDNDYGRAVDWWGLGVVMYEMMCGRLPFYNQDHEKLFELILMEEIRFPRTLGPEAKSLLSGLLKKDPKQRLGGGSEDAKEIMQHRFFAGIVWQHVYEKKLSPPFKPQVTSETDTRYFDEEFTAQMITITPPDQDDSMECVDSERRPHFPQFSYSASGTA

SMILES | Activity
O=C(c1cccs1)N(CCCN1CCCCC1CO)c1nc(-c2cc3ccccc3o2)cs1 (stereo not drawn) [N-(4-(benzofuran-2-yl)thiazol-2-yl)-N-(3-(2-(hydroxymethyl)piperidin-1-yl)propyl)thiophene-2-carboxamide] | AKT1
O=C(c1cccs1)N(CCC(=O)N1CCCC1CO)c1nc(-c2cc3ccccc3o2)cs1 (stereo not drawn) [N-(4-(benzofuran-2-yl)thiazol-2-yl)-N-(3-(2-(hydroxymethyl)pyrrolidin-1-yl)-3-oxopropyl)thiophene-2-carboxamide] | AKT1
O=C(c1cccs1)N(CCCN1CCCC1CO)c1nc(-c2cc3ccccc3o2)cs1 (stereo not drawn) [N-(4-(benzofuran-2-yl)thiazol-2-yl)-N-(3-(2-(hydroxymethyl)pyrrolidin-1-yl)propyl)thiophene-2-carboxamide] | AKT1
O=C(c1cccs1)N(CCCN1CCCCC1CN1CCCC1)c1nc(-c2cc3ccccc3o2)cs1 (stereo not drawn) [N-(4-(benzofuran-2-yl)thiazol-2-yl)-N-(3-(2-(pyrrolidin-1-ylmethyl)piperidin-1-yl)propyl)thiophene-2-carboxamide] | AKT1
O=C(CCN(C(=O)c1cccs1)c1nc(-c2cc3ccccc3o2)cs1)NCCO [N-(4-(benzofuran-2-yl)thiazol-2-yl)-N-(3-(2-hydroxyethylamino)-3-oxopropyl)thiophene-2-carboxamide] | AKT1
COCCNC(=O)CCN(C(=O)c1cccs1)c1nc(-c2cc3ccccc3o2)cs1 [N-(4-(benzofuran-2-yl)thiazol-2-yl)-N-(3-(2-methoxyethylamino)-3-oxopropyl)thiophene-2-carboxamide] | AKT1
O=C(CN1CCOCC1)NCCCN(C(=O)c1cccs1)c1nc(-c2cc3ccccc3o2)cs1 [N-(4-(benzofuran-2-yl)thiazol-2-yl)-N-(3-(2-morpholinoacetamido)propyl)thiophene-2-carboxamide] | AKT1
O=C1CCCN1CCCN(C(=O)c1ccco1)c1nc(-c2cc3ccccc3o2)cs1 [N-(4-(benzofuran-2-yl)thiazol-2-yl)-N-(3-(2-oxopyrrolidin-1-yl)propyl)furan-2-carboxamide] | AKT1
O=C1CCCN1CCCN(C(=O)c1cccs1)c1nc(-c2cc3ccccc3o2)cs1 [N-(4-(benzofuran-2-yl)thiazol-2-yl)-N-(3-(2-oxopyrrolidin-1-yl)propyl)thiophene-2-carboxamide] | AKT1
CCN(C(C)=O)C1CCN(CCCN(C(=O)c2cccs2)c2nc(-c3cc4ccccc4o3)cs2)C1 (stereo not drawn) [N-(4-(benzofuran-2-yl)thiazol-2-yl)-N-(3-(3-(N-ethylacetamido)pyrrolidin-1-yl)propyl)thiophene-2-carboxamide] | AKT1
CC(=O)N(C)C1CCN(CCCN(C(=O)c2cccs2)c2nc(-c3cc4ccccc4o3)cs2)C1 (stereo not drawn) [N-(4-(benzofuran-2-yl)thiazol-2-yl)-N-(3-(3-(N-methylacetamido)pyrrolidin-1-yl)propyl)thiophene-2-carboxamide] | AKT1
CCN(CC)C1CCN(CCCN(C(=O)c2cccs2)c2nc(-c3cc4ccccc4o3)cs2)C1 (stereo not drawn) [N-(4-(benzofuran-2-yl)thiazol-2-yl)-N-(3-(3-(diethylamino)pyrrolidin-1-yl)propyl)thiophene-2-carboxamide] | AKT1
CN(C)C1CCN(C(=O)CCN(C(=O)c2cccs2)c2nc(-c3cc4ccccc4o3)cs2)C1 (stereo not drawn) [N-(4-(benzofuran-2-yl)thiazol-2-yl)-N-(3-(3-(dimethylamino)pyrrolidin-1-yl)-3-oxopropyl)thiophene-2-carboxamide] | AKT1
CN(C)C1CCN(CCCN(C(=O)c2cccs2)c2nc(-c3cc4ccccc4o3)cs2)C1 (stereo not drawn) [N-(4-(benzofuran-2-yl)thiazol-2-yl)-N-(3-(3-(dimethylamino)pyrrolidin-1-yl)propyl)thiophene-2-carboxamide] | AKT1
O=C(CCN(C(=O)c1cccs1)c1nc(-c2cc3ccccc3o2)cs1)N1CCCC(CO)C1 (stereo not drawn) [N-(4-(benzofuran-2-yl)thiazol-2-yl)-N-(3-(3-(hydroxymethyl)piperidin-1-yl)-3-oxopropyl)thiophene-2-carboxamide] | AKT1
O=C(c1cccs1)N(CCCN1CCCC(CO)C1)c1nc(-c2cc3ccccc3o2)cs1 (stereo not drawn) [N-(4-(benzofuran-2-yl)thiazol-2-yl)-N-(3-(3-(hydroxymethyl)piperidin-1-yl)propyl)thiophene-2-carboxamide] | AKT1
O=C(CCN1CCCCC1)NCCCN(C(=O)c1cccs1)c1nc(-c2cc3ccccc3o2)cs1 [N-(4-(benzofuran-2-yl)thiazol-2-yl)-N-(3-(3-(piperidin-1-yl)propanamido)propyl)thiophene-2-carboxamide] | AKT1
CC(CO)(CO)C(=O)NCCCN(C(=O)c1cccs1)c1nc(-c2cc3ccccc3o2)cs1 [N-(4-(benzofuran-2-yl)thiazol-2-yl)-N-(3-(3-hydroxy-2-(hydroxymethyl)-2-methylpropanamido)propyl)thiophene-2-carboxamide] | AKT1
O=C(CCN(C(=O)c1cccs1)c1nc(-c2cc3ccccc3o2)cs1)N1CCCC(O)C1 (stereo not drawn) [N-(4-(benzofuran-2-yl)thiazol-2-yl)-N-(3-(3-hydroxypiperidin-1-yl)-3-oxopropyl)thiophene-2-carboxamide] | AKT1
O=C(c1cccs1)N(CCCN1CCCC(O)C1)c1nc(-c2cc3ccccc3o2)cs1 (stereo not drawn) [N-(4-(benzofuran-2-yl)thiazol-2-yl)-N-(3-(3-hydroxypiperidin-1-yl)propyl)thiophene-2-carboxamide] | AKT1

Second part, the compound after the results:

Activity | SMILES
AKT1 | O=C(CCN(C(=O)c1cccs1)c1nc(-c2cc3ccccc3o2)cs1)N1CCC(O)C1 (stereo not drawn) [N-(4-(benzofuran-2-yl)thiazol-2-yl)-N-(3-(3-hydroxypyrrolidin-1-yl)-3-oxopropyl)thiophene-2-carboxamide]
AKT1 | O=C(c1cccs1)N(CCCN1CCC(O)C1)c1nc(-c2cc3ccccc3o2)cs1 (stereo not drawn) [N-(4-(benzofuran-2-yl)thiazol-2-yl)-N-(3-(3-hydroxypyrrolidin-1-yl)propyl)thiophene-2-carboxamide]
AKT1 | O=C(CCN1CCOCC1)NCCCN(C(=O)c1cccs1)c1nc(-c2cc3ccccc3o2)cs1 [N-(4-(benzofuran-2-yl)thiazol-2-yl)-N-(3-(3-morpholinopropanamido)propyl)thiophene-2-carboxamide]
AKT1 | O=C1CN(CCCN(C(=O)c2cccs2)c2nc(-c3cc4ccccc4o3)cs2)CCN1 [N-(4-(benzofuran-2-yl)thiazol-2-yl)-N-(3-(3-oxopiperazin-1-yl)propyl)thiophene-2-carboxamide]
AKT1 | O=C(c1cccs1)N(CCCN1CCC(O)(O)CC1)c1nc(-c2cc3ccccc3o2)cs1 [N-(4-(benzofuran-2-yl)thiazol-2-yl)-N-(3-(4,4-dihydroxypiperidin-1-yl)propyl)thiophene-2-carboxamide]
AKT1 | O=C(c1cccs1)N(CCCN1CCN(CCOCCO)CC1)c1nc(-c2cc3ccccc3o2)cs1 [N-(4-(benzofuran-2-yl)thiazol-2-yl)-N-(3-(4-(2-(2-hydroxyethoxy)ethyl)piperazin-1-yl)propyl)thiophene-2-carboxamide]
AKT1 | CN(C)C(=O)CN1CCN(CCCN(C(=O)c2cccs2)c2nc(-c3cc4ccccc4o3)cs2)CC1 [N-(4-(benzofuran-2-yl)thiazol-2-yl)-N-(3-(4-(2-(dimethylamino)-2-oxoethyl)piperazin-1-yl)propyl)thiophene-2-carboxamide]
AKT1 | CN(C)CCN1CCN(CCCN(C(=O)c2cccs2)c2nc(-c3cc4ccccc4o3)cs2)CC1 [N-(4-(benzofuran-2-yl)thiazol-2-yl)-N-(3-(4-(2-(dimethylamino)ethyl)piperazin-1-yl)propyl)thiophene-2-carboxamide]
AKT1 | N#CCCN1CCN(CCCN(C(=O)c2cccs2)c2nc(-c3cc4ccccc4o3)cs2)CC1 [N-(4-(benzofuran-2-yl)thiazol-2-yl)-N-(3-(4-(2-cyanoethyl)piperazin-1-yl)propyl)thiophene-2-carboxamide]
AKT1 | O=C(c1cccs1)N(CCCN1CCN(CCO)CC1)c1nc(-c2cc3ccccc3o2)cs1 [N-(4-(benzofuran-2-yl)thiazol-2-yl)-N-(3-(4-(2-hydroxyethyl)piperazin-1-yl)propyl)thiophene-2-carboxamide]
AKT1 | O=C(c1cccs1)N(CCCN1CCC(CCO)CC1)c1nc(-c2cc3ccccc3o2)cs1 [N-(4-(benzofuran-2-yl)thiazol-2-yl)-N-(3-(4-(2-hydroxyethyl)piperidin-1-yl)propyl)thiophene-2-carboxamide]
AKT1 | COCCN1CCN(CCCN(C(=O)c2cccs2)c2nc(-c3cc4ccccc4o3)cs2)CC1 [N-(4-(benzofuran-2-yl)thiazol-2-yl)-N-(3-(4-(2-methoxyethyl)piperazin-1-yl)propyl)thiophene-2-carboxamide]
AKT1 | CCN(CC)C1CCN(CCCN(C(=O)c2cccs2)c2nc(-c3cc4ccccc4o3)cs2)CC1 [N-(4-(benzofuran-2-yl)thiazol-2-yl)-N-(3-(4-(diethylamino)piperidin-1-yl)propyl)thiophene-2-carboxamide]
AKT1 | CN(C)CCCC(=O)NCCCN(C(=O)c1cccs1)c1nc(-c2cc3ccccc3o2)cs1 [N-(4-(benzofuran-2-yl)thiazol-2-yl)-N-(3-(4-(dimethylamino)butanamido)propyl)thiophene-2-carboxamide]
AKT1 | O=C(c1cccs1)N(CCCN1CCC(CO)CC1)c1nc(-c2cc3ccccc3o2)cs1 [N-(4-(benzofuran-2-yl)thiazol-2-yl)-N-(3-(4-(hydroxymethyl)piperidin-1-yl)propyl)thiophene-2-carboxamide]
AKT1 | CS(=O)(=O)N1CCN(CCCN(C(=O)c2cccs2)c2nc(-c3cc4ccccc4o3)cs2)CC1 [N-(4-(benzofuran-2-yl)thiazol-2-yl)-N-(3-(4-(methylsulfonyl)piperazin-1-yl)propyl)thiophene-2-carboxamide]
